In US20230391772A1, “METHODS AND COMPOSITIONS FOR TARGETED PROTEIN DEGRADATION” (Ranok Therapeutics (Hangzhou) Co. Ltd., priority 2020, published 2023):

Key:
[1] = test system: NCI-H23 human non-small cell lung cancer; test: NCI-H23 CCK-8 proliferation assay; type: cell-based; conditions: NCI-H23 cells, 72 hr
Protocol: The following cancer cell lines were employed: BT-474 human breast carcinoma (ATCC, #HTB-20); MIA PaCa-2 human pancreatic carcinoma [2 copies KRAS(G12C)](ATCC, #CRL-1420); NCI-H23 human non-small cell lung cancer [1 copy KRAS(G12C)](ATCC, #CRL-5800); NCI-H358 human non-small cell lung cancer [1 copy KRAS(G12C)](ATCC, #CRL-5807); LU65A human lung carcinoma (Pharmaron, Beijing, China). Cell lines were cultured essentially according to ATCC and Pharmaron recommendations.
Cancer Cell Line Proliferation (CCK-8) Assays
3-fold serial dilutions of each test compound were prepared ranging from 20 μM to 1.02 nM.
% Inhibition=100−(D−B)/(S−B)*100%. • S: Absorbance of cells treated with DMSO • D: Absorbance of compound-treated cells • B: Absorbance of medium with DMSO without cells

HSP90a protein = target: T1, HSP90a protein (Homo sapiens, UniProt P07900); test: HSP90α-binding fluorescent polarization (FP) assay, BODIPY-labeled RNK04010 probe; conditions: FP competition with RNK04010 (BODIPY-labeled), 5 nM, 300 min at 25° C.
T1 construct: purchased BPS Bioscience 50298
Procedure, shortened: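 Test compounds (2.5-fold serial dilution, 20 μM to 5.2 nM) competed with a fluorescent tracer for N-terminal HSP90a, with fluorescence polarization as the read-out. FITC-geldanamycin tracer was used at 5 nM final with 120 min incubation at 25° C; BODIPY-labeled RNK04010 was used at 5 nM final with 300 min incubation.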

[2] = test system: NCI-H358 human non-small cell lung cancer; test: NCI-H358 CCK-8 proliferation assay; type: cell-based; conditions: NCI-H358 cells, 72 hr
Procedure, shortened: (§1)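 KRAS(G12C) lines were used: MIA PaCa-2 with 2 copies, and NCI-H358 and NCI-H23 with 1 copy each. Cells were treated with 3-fold compound dilutions from 20 μM to 1.02 nM, and proliferation was read by CCK-8 absorbance. % inhibition was calculated against DMSO-treated cells after subtracting the cell-free medium blank.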

[3] = test system: MIA PaCa-2 human pancreatic carcinoma; test: MIA PaCa-2 CCK-8 proliferation assay; type: cell-based; conditions: Homo sapiens, MIA PaCa-2, 72 h, MIA PaCa-2 cells
Procedure, shortened: as §1

EC50 [1] [µM]	IC50 (HSP90a protein) [µM]	EC50 [2] [µM]	EC50 [3] [µM]	Structure (SMILES)
0.1 to 1	0.1 to 1	0.1 to 1	–	C=CC(=O)N1CCN(c2nc(NCCC(=O)N3CCC(CN4CCN(Cc5ccc(-n6c(O)nnc6-c6cc(C(C)C)c(O)cc6O)cc5)CC4)CC3)nc3c2CCN(c2cccc4cccc(Cl)c24)C3)C[C@H]1CC#N [Compound 87, (R)-2-(1-acryloyl-4-(7-(8-chloronaphthalen-1-yl)-2-((3-(4-((4-(4-(3-(2,4-dihydroxy-5-isopropylphenyl)-5-hydroxy-4H-1,2,4-triazol-4-yl)benzyl)piperazin-1-yl)methyl)piperidin-1-yl)-3-oxopropyl)amino)-5,6,7,8-tetrahydropyrido[3,4-d]pyrimidin-4-yl)piperazin-2-yl)acetonitrile, trifluoroacetic acid]
0.1 to 1	> 1	0.1 to 1	–	CCc1cc(-c2nnc(C(=O)NCC(F)(F)F)n2-c2ccc(CN(C)Cc3ccc(CC4CCN(C(=O)CCNc5nc6c(c(N7CCN(C(C)=O)[C@H](CC#N)C7)n5)CCN(c5cccc7ccccc57)C6)CC4)cc3)cc2)c(O)cc1O [Compound 118, (R)-4-(4-(((4-((1-(3-((4-(4-acetyl-3-(cyanomethyl)piperazin-1-yl)-7-(naphthalen-1-yl)-5,6,7,8-tetrahydropyrido[3,4-d]pyrimidin-2-yl)amino)propanoyl)piperidin-4-yl)methyl)benzyl)(methyl)amino)methyl)phenyl)-5-(5-ethyl-2,4-dihydroxyphenyl)-N-(2,2,2-trifluoroethyl)-4H-1,2,4-triazole-3-carboxamide, trifluoroacetic acid]
0.1 to 1	< 0.1	0.1 to 1	0.1 to 1	CC(=O)N1CCN(c2nc(NCCC(=O)N3CCC(CN4CCN(Cc5ccc(-n6c(O)nnc6-c6cc(C(C)C)c(O)cc6O)cc5)CC4)CC3)nc3c2CCN(c2cc(O)cc4ccccc24)C3)CC1 [Compound 21, 3-((4-(4-acetylpiperazin-1-yl)-7-(3-hydroxynaphthalen-1-yl)-5,6,7,8-tetrahydropyrido[3,4-d]pyrimidin-2-yl)amino)-1-(4-((4-(4-(3-(2,4-dihydroxy-5-isopropylphenyl)-5-hydroxy-4H-1,2,4-triazol-4-yl)benzyl)piperazin-1-yl)methyl)piperidin-1-yl)propan-1-one, trifluoroacetic acid]
> 1	0.1 to 1	0.1 to 1	–	CCCc1cc(-c2nnc(O)n2-c2ccc(CN3CCN(CC4CCN(C(=O)CCNc5nc6c(c(N7CCN(C(C)=O)CC7)n5)CCN(c5cc(O)cc7ccccc57)C6)CC4)CC3)cc2)c(O)cc1O [Compound 59, 3-((4-(4-acetylpiperazin-1-yl)-7-(3-hydroxynaphthalen-1-yl)-5,6,7,8-tetrahydropyrido[3,4-d]pyrimidin-2-yl)amino)-1-(4-((4-(4-(3-(2,4-dihydroxy-5-propylphenyl)-5-hydroxy-4H-1,2,4-triazol-4-yl)benzyl)piperazin-1-yl)methyl)piperidin-1-yl)propan-1-one, trifluoroacetic acid]
0.1 to 1	0.1 to 1	0.1 to 1	–	C=CC(=O)N1CCN(c2nc(NCCC(=O)N3CCC(Cc4ccc(CN(C)Cc5ccc(-n6c(O)nnc6-c6cc(C(C)C)c(O)cc6O)cc5)cc4)CC3)nc3c2CCN(c2cc(O)cc4ccccc24)C3)CC1 [Compound 19, 1-(4-(2-((3-(4-(4-(((4-(3-(2,4-dihydroxy-5-isopropylphenyl)-5-hydroxy-4H-1,2,4-triazol-4-yl)benzyl)(methyl)amino)methyl)benzyl)piperidin-1-yl)-3-oxopropyl)amino)-7-(3-hydroxynaphthalen-1-yl)-5,6,7,8-tetrahydropyrido[3,4-d]pyrimidin-4-yl)piperazin-1-yl)prop-2-en-1-one, trifluoroacetic acid]
0.1 to 1	> 1	> 1	–	CCc1cc(-c2nnc(O)n2-c2ccc(CN3CCN(CC4CCN(c5nc6c(c(N7CCN(C(=O)C(F)(F)F)[C@@H](CC#N)C7)n5)CCN(c5cccc7cccc(Cl)c57)C6)CC4)CC3)cc2)c(O)cc1O [Compound 131, (S)-2-(4-(7-(8-chloronaphthalen-1-yl)-2-(4-((4-(4-(3-(5-ethyl-2,4-dihydroxyphenyl)-5-hydroxy-4H-1,2,4-triazol-4-yl)benzyl)piperazin-1-yl)methyl)piperidin-1-yl)-5,6,7,8-tetrahydropyrido[3,4-d]pyrimidin-4-yl)-1-(2,2,2-trifluoroacetyl)piperazin-2-yl)acetonitrile]
0.1 to 1	0.1 to 1	0.1 to 1	–	C=CC(=O)N1CCN(c2nc(NCCC(=O)NCCc3ccc(CN4CCC(Cc5ccc(-n6c(C(=O)NCC(F)(F)F)nnc6-c6cc(C(C)C)c(O)cc6O)cc5)CC4)cc3)nc3c2CCN(c2cccc4ccccc24)C3)C[C@H]1CC#N [Compound 108, (R)-4-(4-((1-(4-(2-(3-((4-(4-acryloyl-3-(cyanomethyl)piperazin-1-yl)-7-(naphthalen-1-yl)-5,6,7,8-tetrahydropyrido[3,4-d]pyrimidin-2-yl)amino)propanamido)ethyl)benzyl)piperidin-4-yl)methyl)phenyl)-5-(2,4-dihydroxy-5-isopropylphenyl)-N-(2,2,2-trifluoroethyl)-4H-1,2,4-triazole-3-carboxamide, trifluoroacetic acid, trifluoroacetic acid, trifluoroacetic acid, trifluoroacetic …]
> 1	< 0.1	0.1 to 1	–	CCC(=O)N1CCN(c2nc(NCCC(=O)N[C@H](C)c3ccc(CN4CCC(Cc5ccc(-n6c(O)nnc6-c6cc(C(C)C)c(O)cc6O)cc5)CC4)cc3)nc3c2CCN(c2cc(O)cc4ccccc24)C3)CC1 [Compound 61]
0.1 to 1	0.1 to 1	0.1 to 1	–	C=CC(=O)N1CCN(c2nc(NCCC(=O)N3CCC(CN4CCN(Cc5ccc(-n6c(C(=O)NCC(F)(F)F)nnc6-c6cc(C)c(O)cc6O)cc5)CC4)CC3)nc3c2CCN(c2cc(O)cc4ccccc24)C3)CC1 [Compound 10, 4-(4-((4-((1-(3-((4-(4-acryloylpiperazin-1-yl)-7-(3-hydroxynaphthalen-1-yl)-5,6,7,8-tetrahydropyrido[3,4-d]pyrimidin-2-yl)amino)propanoyl)piperidin-4-yl)methyl)piperazin-1-yl)methyl)phenyl)-5-(2,4-dihydroxy-5-methylphenyl)-N-(2,2,2-trifluoroethyl)-4H-1,2,4-triazole-3-carboxamide, trifluoroacetic acid]
0.1 to 1	0.1 to 1	0.1 to 1	–	CCC(=O)N1CCN(c2nc(N3CCC(CN4CCN(Cc5ccc(-n6c(O)nnc6-c6cc(C(C)C)c(O)cc6O)cc5)CC4)CC3)nc3c2CCN(c2cccc4cccc(Cl)c24)C3)C[C@@H]1CC#N [Compound 128, (S)-2-(4-(7-(8-chloronaphthalen-1-yl)-2-(4-((4-(4-(3-(2,4-dihydroxy-5-isopropylphenyl)-5-hydroxy-4H-1,2,4-triazol-4-yl)benzyl)piperazin-1-yl)methyl)piperidin-1-yl)-5,6,7,8-tetrahydropyrido[3,4-d]pyrimidin-4-yl)-1-propionylpiperazin-2-yl)acetonitrile]
0.1 to 1	< 0.1	0.1 to 1	–	C=CC(=O)N1CCN(c2nc(OCCC(=O)N3CCC(CN4CCN(Cc5ccc(-n6c(O)nnc6-c6cc(C(C)C)c(O)cc6O)cc5)CC4)CC3)nc3c2CCN(c2cc(O)cc4ccccc24)C3)CC1 [Compound 15, 1-(4-(2-(3-(4-((4-(4-(3-(2,4-dihydroxy-5-isopropylphenyl)-5-hydroxy-4H-1,2,4-triazol-4-yl)benzyl)piperazin-1-yl)methyl)piperidin-1-yl)-3-oxopropoxy)-7-(3-hydroxynaphthalen-1-yl)-5,6,7,8-tetrahydropyrido[3,4-d]pyrimidin-4-yl)piperazin-1-yl)prop-2-en-1-one, trifluoroacetic acid]
0.1 to 1	0.1 to 1	0.1 to 1	–	C=CC(=O)N1CCN(c2nc(NCCC(=O)N[C@H](C)c3ccc(CN4CCC(Cc5ccc(-n6c(O)nnc6-c6cc(C(C)C)c(O)cc6O)cc5)CC4)cc3)nc3c2CCN(c2cc(O)cc4ccccc24)C3)CC1 [Compound 18, (R)-3-((4-(4-acryloylpiperazin-1-yl)-7-(3-hydroxynaphthalen-1-yl)-5,6,7,8-tetrahydropyrido[3,4-d]pyrimidin-2-yl)amino)-N-(1-(4-((4-(4-(3-(2,4-dihydroxy-5-isopropylphenyl)-5-hydroxy-4H-1,2,4-triazol-4-yl)benzyl)piperidin-1-yl)methyl)phenyl)ethyl)propanamide, trifluoroacetic acid]
